Assay results from the supplement of paper PMC7287046.

Assays:
Conditions in all cases: exposure time: 72 h
SF539 [1] = experiment: HSA synergy score (Combenefit); higher = more synergy
Method: (§1)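 The same 6x6 dose matrices of drug pairs on glioma cell lines (72 h, CellTiter-Glo viability normalised to DMSO, triplicate) were scored with Combenefit. The Loewe, Bliss and HSA synergy scores are given; paper thresholds are Loewe 7.8 and Bliss 2.5.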

AM-38 [2] = experiment: as above
Method: as §1

SF268 [3] = experiment: as above
Method: as §1

U87 [4] = experiment: as above
Method: as §1

U118 [5] = experiment: as above
Method: as §1

SNB75 [6] = experiment: as above
Method: as §1

T98G [7] = experiment: as above
Method: as §1

KNS-42 [8] = experiment: as above
Method: as §1

U251 [9] = experiment: as above
Method: as §1

SF539 [10] = experiment: Loewe synergy score (Combenefit); higher = more synergy; extreme values may be limits of the assay
Method: as §1

AM-38 [11] = experiment: as above
Method: as §1

SF268 [12] = experiment: as above
Method: as §1

U87 [13] = experiment: as above
Method: as §1

U118 [14] = experiment: as above
Method: as §1

SNB75 [15] = experiment: as above
Method: as §1

T98G [16] = experiment: as above
Method: as §1

KNS-42 [17] = experiment: as above
Method: as §1

U251 [18] = experiment: as above
Method: as §1

SF539 [19] = experiment: Chou-Talalay combination index (dimensionless); higher = less synergy (more antagonism)
Method: (§2)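 Glioma cell lines were treated for 72 h with a 6x6 matrix of two drugs, each in twofold dilutions with the top dose at the single-drug IC50. Viability was read by CellTiter-Glo and normalised to DMSO controls, in triplicate. The Chou-Talalay combination index was computed by the median effect principle; CI < 0.8 means synergy.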

AM38 = experiment: as above
Method: as §2

T98 = experiment: as above
Method: as §2

SF268 [20] = experiment: as above
Method: as §2

U87 [21] = experiment: as above
Method: as §2

U118 [22] = experiment: as above
Method: as §2

SNB75 [23] = experiment: as above
Method: as §2

KNS42 = experiment: as above
Method: as §2

U251 [24] = experiment: as above
Method: as §2

SF539 [25] = experiment: Bliss synergy score (Combenefit); higher = more synergy; extreme values may be limits of the assay
Method: as §1

AM-38 [26] = experiment: as above
Method: as §1

SF268 [27] = experiment: as above
Method: as §1

U87 [28] = experiment: as above
Method: as §1

U118 [29] = experiment: as above
Method: as §1

SNB75 [30] = experiment: as above
Method: as §1

T98G [31] = experiment: as above
Method: as §1

KNS-42 [32] = experiment: as above
Method: as §1

U251 [33] = experiment: as above
Method: as §1

Row | SMILES | HSA synergy score (SF539 [1]) | HSA synergy score (AM-38 [2]) | HSA synergy score (SF268 [3]) | HSA synergy score (U87 [4]) | HSA synergy score (U118 [5]) | HSA synergy score (SNB75 [6]) | HSA synergy score (T98G [7]) | HSA synergy score (KNS-42 [8]) | HSA synergy score (U251 [9]) | Loewe synergy score (SF539 [10]) | Loewe synergy score (AM-38 [11]) | Loewe synergy score (SF268 [12]) | Loewe synergy score (U87 [13]) | Loewe synergy score (U118 [14]) | Loewe synergy score (SNB75 [15]) | Loewe synergy score (T98G [16]) | Loewe synergy score (KNS-42 [17]) | Loewe synergy score (U251 [18]) | Chou-Talalay combination index (SF539 [19]) | Chou-Talalay combination index (AM38) | Chou-Talalay combination index (T98) | Chou-Talalay combination index (SF268 [20]) | Chou-Talalay combination index (U87 [21]) | Chou-Talalay combination index (U118 [22]) | Chou-Talalay combination index (SNB75 [23]) | Chou-Talalay combination index (KNS42) | Chou-Talalay combination index (U251 [24]) | Bliss synergy score (SF539 [25]) | Bliss synergy score (AM-38 [26]) | Bliss synergy score (SF268 [27]) | Bliss synergy score (U87 [28]) | Bliss synergy score (U118 [29]) | Bliss synergy score (SNB75 [30]) | Bliss synergy score (T98G [31]) | Bliss synergy score (KNS-42 [32]) | Bliss synergy score (U251 [33])
1 | Cc1cc([C@@H](C)Nc2ccccc2C(=O)O)c2nc(N3CCOCC3)cc(=O)n2c1 [AZD6482] + CCOc1nc(NC(=O)Cc2cc(OC)ccc2OC)cc(N)c1C#N [JNK inhibitor VIII] | 7.49 | 17 | 4.35 | 1 | 8.89 | 6.97 | 11.5 | 0.866 | 0.00428 | 1.84 | 15.4 | 0.654 | 1 | 2.68 | 6.97 | 11.5 | 0.866 | 0.00428 | 0.545 | 0.77 | 0.758 | 0.792 | 0.576 | 0.669 | 1 | 0.994 | 0.731 | 0.0312 | 14.5 | 0.107 | 1 | 2.95 | 6.97 | 10.8 | 0.255 | 0.00428
2 | O=c1[nH]c2ccccc2n1C1CCN(Cc2ccc(-c3[nH]c4cc5ncnc5cc4nc3-c3ccccc3)cc2)CC1 [Akt inhibitor VIII] + N#CC(c1ccnc(NCCc2cccnc2)n1)c1nc2ccccc2s1 [AS601245] | 0.651 | 14 | 8.59 | 12.3 | 12.4 | 5.96 | 17.9 | 3.65 | 3.96 | 0.638 | 11.2 | 0.94 | 6.85 | 7.71 | 0.62 | 9.66 | 1.66 | 3.96 | 0.966 | 0.584 | 0.031 | 0.805 | 0.0154 | 0.264 | 0.89 | 0.979 | 0.641 | 0.0617 | 8.16 | 1.39 | 10.4 | 5.46 | 1.31 | 9.74 | 0.964 | 3.96
3 | C[C@@H](Oc1cc(-c2cnn(C3CCNCC3)c2)cnc1N)c1c(Cl)ccc(F)c1Cl [Crizotinib] + C=CCc1cccc(/C=N/NC(=O)CN2CCN(Cc3ccccc3)CC2)c1O [PAC-1] | 3.88 | 0.987 | 1.21 | 4.47 | 2.29 | 5.78 | 2.4 | 16.5 | 1.43 | 0.62 | 0.141 | 0.692 | 4.47 | 0.609 | 0.297 | 2.4 | 15.3 | 1.22 | 0.877 | 0.937 | 0.476 | 1.04 | 0.154 | 0.584 | 0.951 | 0.421 | 0.821 | 1.39 | 0.773 | 0 | 4.47 | 0.539 | 0.417 | 2.4 | 7.19 | 0.0857
4 | C[C@@H](Oc1cc(-c2cnn(C3CCNCC3)c2)cnc1N)c1c(Cl)ccc(F)c1Cl [Crizotinib] + CCOc1nc(NC(=O)Cc2cc(OC)ccc2OC)cc(N)c1C#N [JNK inhibitor VIII] | 13.6 | 1.09 | 6.62 | 0 | 9.81 | 10.4 | 2.65 | 5.67 | 6.52 | 2.32 | 0.954 | 1.66 | 0 | 4.11 | 4.28 | 2.42 | 2.75 | 6.52 | 0.458 | 1.13 | 0.945 | 0.637 | 2.67 | 0.732 | 0.972 | 0.929 | 0.838 | 5.02 | 0 | 2.4 | 0 | 5.36 | 0 | 0.922 | 1.72 | 4.44
5 | C[C@@H](Oc1cc(-c2cnn(C3CCNCC3)c2)cnc1N)c1c(Cl)ccc(F)c1Cl [Crizotinib] + Cc1cc([C@@H](C)Nc2ccccc2C(=O)O)c2nc(N3CCOCC3)cc(=O)n2c1 [AZD6482] | 10.7 | 11.9 | 6.69 | 5.48 | 3.87 | 9.49 | 4.32 | 4.57 | 16.2 | 2.57 | 3.58 | 3.44 | 5.48 | 3.69 | 3.14 | 4.32 | 3.35 | 16.2 | 0.842 | 0.52 | 0.543 | 0.786 | 0.652 | 0.844 | 0.802 | 0.887 | 0.567 | 0.821 | 4.62 | 0.801 | 5.48 | 0.491 | 0.559 | 4.32 | 3.3 | 12.8
6 | CC(=O)O[C@@]12CO[C@@H]1C[C@H](O)[C@@]1(C)C(=O)[C@H](O)C3=C(C)[C@@H](OC(=O)[C@H](O)[C@@H](NC(=O)OC(C)(C)C)c4ccccc4)C[C@@](O)([C@@H](OC(=O)c4ccccc4)[C@H]21)C3(C)C [Docetaxel] + C#Cc1cccc(Nc2ncnc3cc(OCCOC)c(OCCOC)cc23)c1 [Erlotinib] | 2.49 | 0 | 9.27 | 3.14 | 6.82 | 5.52 | 9.15 | 7.84 | 5.05 | 1.4 | 0 | 5.33 | 0.182 | 0.504 | 5.52 | 8.54 | 7.84 | 5.05 | 0.998 | 0.962 | 0.713 | 0.934 | 1.1 | 0.956 | 0.781 | 0.834 | 0.678 | 0 | 0 | 0.0561 | 0 | 0.59 | 4.1 | 0.0594 | 2.96 | 2.48
7 | CC(=O)O[C@@]12CO[C@@H]1C[C@H](O)[C@@]1(C)C(=O)[C@H](O)C3=C(C)[C@@H](OC(=O)[C@H](O)[C@@H](NC(=O)OC(C)(C)C)c4ccccc4)C[C@@](O)([C@@H](OC(=O)c4ccccc4)[C@H]21)C3(C)C [Docetaxel] + CCC(=O)N1CCN(c2ccc(-n3c(=O)ccc4cnc5ccc(-c6cnc7ccccc7c6)cc5c43)cc2C(F)(F)F)CC1 [Torin1] | 2.76 | 9.71 | 12.8 | 28.7 | 4.14 | 3.38 | 9.53 | 14.4 | 6.14 | 2.76 | 3.28 | 6.57 | 20.6 | 1.75 | 1.3 | 8.3 | 10.2 | 5.9 | 0.976 | 0.895 | 0.53 | 0.8 | 0.448 | 0.949 | 0.749 | 0.95 | 0.732 | 0 | 0 | 2.06 | 14 | 0.102 | 0.14 | 0.32 | 0.0301 | 0.704
8 | CC(=O)O[C@@]12CO[C@@H]1C[C@H](O)[C@@]1(C)C(=O)[C@H](O)C3=C(C)[C@@H](OC(=O)[C@H](O)[C@@H](NC(=O)OC(C)(C)C)c4ccccc4)C[C@@](O)([C@@H](OC(=O)c4ccccc4)[C@H]21)C3(C)C [Docetaxel] + CCCCCCCCCCCC1=C(O)C(=O)C=C(O)C1=O [Embelin] | 3.01 | 1.16 | 1.82 | 0.7 | 0.358 | 3.76 | 2.71 | 6.6 | 9.62 | 2.91 | 0.74 | 0 | 0.7 | 0.129 | 0.195 | 2.71 | 3.76 | 0.944 | 0.835 | 1.08 | 0.911 | 1.01 | 0.827 | 0.982 | 0.849 | 0.349 | 0.659 | 0.24 | 0 | 0.0571 | 0.7 | 0.219 | 0.144 | 0.71 | 3.74 | 3.66
9 | CC(=O)O[C@@]12CO[C@@H]1C[C@H](O)[C@@]1(C)C(=O)[C@H](O)C3=C(C)[C@@H](OC(=O)[C@H](O)[C@@H](NC(=O)OC(C)(C)C)c4ccccc4)C[C@@](O)([C@@H](OC(=O)c4ccccc4)[C@H]21)C3(C)C [Docetaxel] + N#CC(c1ccnc(NCCc2cccnc2)n1)c1nc2ccccc2s1 [AS601245] | 7.49 | 0.465 | 4.46 | 1.81 | 2.85 | 10.1 | 13 | 11.3 | 8.45 | 2.08 | 0.0158 | 0.451 | 0.835 | 0.96 | 5.22 | 10.3 | 3.02 | 0.486 | 0.69 | 1.13 | 0.553 | 0.887 | 0.00672 | 0.875 | 0.738 | 0.832 | 0.673 | 0.511 | 0.0376 | 0.207 | 0.347 | 0.0703 | 2.39 | 4.9 | 3.75 | 5.06
